Source: a melting point compilation (Tetko et al.; mined from patent text by program, amines drawn as free bases though some values may be those of a salt)

Row | melting point [°C] | SMILES
1 | 125 to 127 | CC(C)N1CCN(CCN2CCN(c3noc4cc(F)ccc34)CC2)C1=O
2 | 154 to 157 | COC(=O)C[C@H](O)C[C@H](O)CCc1c(-c2ccc(F)cc2)c(-c2ccccc2)c(C(=O)Nc2ccccc2)n1C(C)C
3 | 78 to 80 | CC(=C[N+](=O)[O-])NCCN(C)Cc1ccc(Cl)nc1
4 | 56 to 58 | CCCCCCCCCCOc1cc(OCCCCCCCCCC)cc(C(=O)O)c1
5 | 175 to 177 | Nc1cccc(Cc2n[nH]c(=O)c3ccccc23)c1
6 | 88 to 89 | Cc1nccn1-c1nc(-c2ccc(Cl)cc2)c(CCCC2=NCCO2)o1
7 | 131 to 133 | CC(=O)NCc1ccc2c(c1)N(C1CCN(CCc3ccc(F)cc3)CC1)CC2(C)C
8 | 177 to 179 | CS(=O)(=O)c1ccc(CN2CC3(COc4cc5c(cc43)OCO5)c3ccccc32)o1 (centres undefined)
9 | 231 | Cc1cc2c(s1)S(=O)(=O)NC2=O
10 | 215 to 216 | O=C(O)C1=Cc2cc(-c3ccc(Br)cc3)ccc2OC1C(F)(F)F (centres undefined)
11 | 164 to 167 | O=C(Nc1ccc2c(c1)CCN(C(=O)Nc1ccc(OCC(O)CO)cc1Cl)C2)Nc1ccccc1F (centres undefined)
12 | 70 | CCOC(=O)COc1c2c3c(ccnc3c3ccccc13)CCC2
13 | 174 to 176 | O=c1c2cccnc2c(-c2ccccc2)nn1-c1ccccc1
14 | 275 to 277 | CCn1ncc2c(NCC3CCCCC3)c3cc(C(=O)OC)ccc3nc21
15 | 291 to 293 | Cn1nc(-c2cnc3[nH]cc(C(=O)NCC(C)(C)CO)c3n2)c2ccc(F)cc21
16 | 182 to 183 | CNCc1coc(-c2cccc(C3=Nc4ccc(-n5cccc5)cc4NC(=O)C3)c2)n1
17 | 110 to 115 | Nc1ccc2c(c1)CN(Cc1ccccc1)C2
18 | 92 to 96 | COC(=O)c1ccc(C(O)COc2ccc3c(c2)C(C)(C)CCC3(C)C)cc1 (centres undefined)
19 | 71 to 74 | CCOC(=O)C(=CNC1CC1)C(=O)c1cc(Cl)c(F)c(Cl)c1F
20 | 104 to 107 | Cc1ncc2c(n1)-c1ccc(Cl)cc1C(c1ccccc1F)=NC2
21 | 159 to 160 | Cn1ncc(/C=C/C(=O)Nc2ccc(Cc3nc(C(N)=O)cs3)cc2)c1-c1ccc(F)cc1
22 | 169 to 174 | CCOc1c([C@@H]2C[C@@H]2/C=C/C(C)=C/C(=O)O)cc(C(C)(C)C)cc1C(C)(C)C (racemic)
23 | 151 to 153 | CCNc1cc(-c2c(-c3cccc(C)c3)nc3cccnn23)ccn1
24 | 96 to 97 | CC(C)(CCCOc1cccc(C(F)(F)F)c1)C(=O)O

Row | melting point [°C] | SMILES
25 | 87 to 88 | COC(=O)c1ccc2oc(CCCc3cc4cc(C(=O)OC)ccc4o3)cc2c1
26 | 266 to 267 | O=C1NCCN1c1ccc(S(=O)(=O)Nc2ccc(I)cc2)cc1
27 | 136 to 138 | CS(=O)(=O)c1ccc(-c2c(-c3ccc(F)cc3)c(OCC(=O)c3cccs3)nn2CC(=O)c2cccs2)cc1
28 | 174 to 176 | Cc1cc(N2CCN(CC(=O)c3ccccc3)C2=O)sc1C(=O)NCc1cccnc1
29 | 207 to 209 | CCc1nc(OC)c(NC(=O)N2CCN(c3cccc(O)c3)CC2)cc1C(=O)NC(C)C(=O)Nc1cc(CO)cc(Nc2c3ccccc3nc3ccccc23)c1 (centres undefined)
30 | 50 to 52 | CCC(C)C(C(=O)O)n1sc2ccccc2c1=O (centres undefined)
31 | 200 to 202 | O=C(O)Cc1cccc2c(-c3ccc(Cl)cc3)onc12
32 | 131 to 133 | O=c1ccoc2c(C/C=C/c3ccccc3)c(OCc3ccccc3)ccc12
33 | 91 to 92 | CCC(=O)c1cc2c(s1)CCCN(CCCCCl)C2=O
34 | 201 to 204 | O=C(CN1CCCC1)NCc1ccc2c(c1)-c1[nH]nc(-c3ccsc3)c1C2
35 | 103 to 104 | COCOc1cccc(-c2ccc(-c3ccccc3)cc2-c2ccc3c(c2)C(C)(C)CCC3(C)C)c1C(=O)O
36 | 143 | Cc1nc2c(N)nc3ccccc3c2n1CCOCC#Cc1ccccc1
37 | 172 to 174 | C[C@]1(COC(=O)N2CCCc3cc(Cl)ccc32)Cn2cc([N+](=O)[O-])nc2O1
38 | 25 | CCCCCOCCCCCCCCCCCCBr
39 | 93 to 96 | CC(=O)Oc1ccccc1C1SC[C@@H](C(=O)O)N1C(=O)CCSC(=O)c1ccc(C)cc1 (some centres undefined)
40 | 166 | O=C(NCCCCN1CCC(Oc2cccc3ccccc23)CC1)c1ccc(-c2ccc(C(F)(F)F)cc2)cc1
41 | 137 to 138 | Nc1nsnc1NCCCOc1cccc(CN2CCCCC2)c1
42 | 191 to 192 | O=C1NCCN=C1c1ccc([N+](=O)[O-])cc1
43 | 220 | CC12CCC(C(=Cc3ccc(O)cc3)C1=O)C2(C)C (centres undefined)
44 | 226 to 228 | COc1cc2c(cc1C(F)(F)F)N(C(=O)Nc1cccc(-c3cncnc3)c1)CC2
45 | 133 to 135 | C=CCc1cc2c(c(CC=C)c1O)CCC(=O)N2CC=C(C)C
46 | 109 to 113 | CCc1cn(C2CCC(CO)O2)c(=O)[nH]c1=O (centres undefined)
47 | 118 to 120 | CCOc1cc(C(C#N)N2C(=O)c3cccc(NC(C)=O)c3C2=O)ccc1OC (centres undefined)
48 | > 250 | Nc1nc(N)c2c(CCCc3ccc(C(=O)N[C@@H](CCC(=O)O)C(=O)O)cc3)cnc-2[nH]1

Row | melting point [°C] | SMILES
49 | 204 to 206 | N#Cc1cnc2scc(Br)c2c1Br
50 | 199 to 202 | CC(=O)Nc1cc2c(cc1[N+](=O)[O-])N(C(C)=O)CCO2
51 | 227 to 228 | C=C1CC2C(CCC3(C)C2CCC3(OC(C)=O)C(=O)COC(C)=O)C2(C)CCC(=O)C=C12 (centres undefined)
52 | 128 to 130 | COc1cc2ncc(C#N)c(Nc3ccc(C)cc3)c2cc1OC
53 | 157 to 159 | Clc1nc2ccccc2nc1Nc1cccc2ccccc12
54 | 89.8 to 90.8 | CC(C)(C(=O)Nc1cccc(Cl)c1)N1COC(CBr)=C(c2ccccc2)C1=O
55 | 59.5 to 61 | COC(CC[C@](C)(O)[C@@H](/C=C\C=C\c1ccccc1)Sc1ccccc1)OC (racemic)
56 | 120 to 145 | CCCCCCCCCCCCCCCCCCNC(=O)NCCCCCCCCN
57 | 248 to 250 | O=C(CO)NNc1ccnc2c(NC(=O)c3c(Cl)cccc3Cl)cccc12
58 | 132 to 133 | N#Cc1ccc(N2CCN(Cc3cn4cc(Cl)ccc4n3)CC2)c(F)c1
59 | 119 to 120 | CN(CCC=C1c2ccccc2C=Cc2ccccc21)CCC(=O)O
60 | 89 | COc1ccc(S(=O)(=O)Nc2ccccc2O)cc1
61 | 251 | Cc1[nH]n(C2CCOC2)c2nc(-c3ccncc3)nc(=O)c1-2 (centres undefined)
62 | 110 to 111 | CN1CCC(c2nn(-c3ccccc3C(F)(F)F)c3ccccc23)CC1
63 | 160 to 161 | CCOC(=O)CCCSc1ncnc2c(O)n(C)nc12
64 | 135 to 137 | O=C(O)CC[C@H]1O[C@@H](c2ccccc2Cl)c2cc(Cl)ccc2N(Cc2ccccc2)C1=O (relative stereo)
65 | 39 to 41 | CCOC(=O)COc1ccc2c(c1)CCCC2=O
66 | 166 | CC1(C)CC(=O)Nc2c(CCCN3CCN(c4nsc5ccccc45)CC3)cccc21
67 | 171 to 173 | O=C(c1ccccc1)c1c(O)cc(-c2ccccc2)oc1=O
68 | 111 to 113 | OCc1cc(-c2ccc(C(F)(F)F)cc2)on1
69 | 308 to 310 | Cc1cccc2nc(C(F)(F)F)n(C3CCC(=O)NC3=O)c(=O)c12 (centres undefined)
70 | 300 | Cc1c2c(cc(=O)n1CC(C)O)CCC(c1ccccn1)C2 (centres undefined)
71 | 174 to 176 | COc1cc(C(O)C#Cc2c(C)nc(N)nc2N)cc(OC)c1OC (centres undefined)
72 | 117 to 118 | O=C(O)CCC=C(Cl)Cl

Row | melting point [°C] | SMILES
73 | 127 to 129 | CC(C)(CO)NC(N)=S
74 | > 200 | Cc1nc(N2CCc3nc(N)sc3CC2)c([N+](=O)[O-])c(=O)[nH]1
75 | 96 to 98 | OCc1cc(OCc2ccc(C(F)(F)F)cc2)ccn1
76 | 94 to 96 | COC(=O)CC(Sc1cc(C(C)(C)C)c(O)c(C(C)(C)C)c1)C(=O)OC (centres undefined)
77 | 168 to 171 | CCOC(=O)c1sc(=O)[nH]c1-c1cccc(C(F)(F)F)c1
78 | 95 | c1cn2nc(N3CCCCC3)c3c(c2n1)CCCC3
79 | 193 to 195 | COCc1csc(C(=O)C2C(=O)N(C(N)=O)c3ccc(Cl)cc32)c1 (centres undefined)
80 | 132 to 133 | Cc1cccc(NC(=O)NC2N=C(CC(C)C)c3cccc(C)c3N(CC(=O)N3CCCCCCC3)C2=O)c1 (centres undefined)
81 | 150 to 151 | CC(C)COc1ccc(C(=O)N/C(=C\c2ccc(OCC(F)F)cc2)C(=O)NCCO)cc1
82 | 105 to 107 | CC(CN(C)C)CC(CNC(=O)NCCCl)(c1ccc(F)cc1)c1ccc(F)cc1 (centres undefined)
83 | 135 to 136 | COCCOCCOCCOCCOc1cc(NC(=O)OC(C)(C)C)c(NC(=O)CC(=O)c2cccc(C#N)c2)cc1C#Cc1ccccc1
84 | 158 to 159 | Fc1ccc(C2OC3(CCN(Cc4ccccc4)CC3)N3CCCCC23)cc1 (centres undefined)
85 | 89 to 92 | Brc1c[nH]c2ccc(OCc3ccccc3)cc12
86 | 45 to 47 | C[C@@H](CN1C(=O)c2ccccc2C1=O)CC(F)(F)F
87 | 77 to 79 | O=C(c1ccccc1)c1ccc([N+](=O)[O-])c(F)c1
88 | 164 to 166 | COc1ccc(C=C(Cl)Cl)c(C(=O)O)c1
89 | 147 to 148 | CCOC(=O)COc1ccc2c(C)c(CCN(CC)CC)c(=O)oc2c1Cl
90 | 191 to 192 | C[C@@H](N(CC(=O)O)C(=O)c1ccc(C(F)(F)F)cc1F)[C@](O)(Cn1cncn1)c1ccc(F)cc1F (relative stereo)
91 | 68 to 71 | CCOC1CC2CCC3C4CCC(C(C)=O)C4(C)CC(NC(=O)OCC(Cl)(Cl)Cl)C3C2(C)CC1OCC (centres undefined)
92 | 227 to 231 | COc1cccc2c(=O)[nH]c(-c3ccccc3)cc12
93 | 112 to 114 | CCCCCCCCCCCCCCCCC1=C(c2cn(C)c3ccccc23)C(=O)NC1=O
94 | 95 to 98 | Cc1cc(C)cc(C(=O)N[C@H](Cc2ccccc2)C(=O)N[C@@H](Cc2c[nH]c3ccccc23)C(=O)O)c1

Row | SMILES | melting point [°C]
95 | Fc1ccc(-c2cc(N3CCNCC3)nnc2C(F)(F)F)cc1 | 137
96 | CC(Cc1c[nH]c2ccc(N)cc12)[N+](=O)[O-] (centres undefined) | 120 to 122
97 | O=C(O)c1ncn2c1[C@@H]1CCN1C(=O)c1c(Cl)cccc1-2 | 244 to 245
98 | CC1(O)CCC2C3CCC45OC4(C)C(=O)C(C#N)CC5(C)C3CCC21C (centres undefined) | 166 to 167
99 | CN1Cc2c(-c3noc(CNC4CC4)n3)ncn2-c2ccc(F)cc2C1=O | 176 to 178
